19 compounds from US20090018150A1, “5-Ht2b Receptor Antagonists” (ASTERAND UK LIMITED, priority 2003, published 2009) can be followed below.

Where a name gives a salt, the structure may show the parent alone.

Assay [1] has as its target T1, human cloned 5-HT2B receptors (Homo sapiens, UniProt P41595).
T1 construct: expressed in transfected cells; host or cells: CHO-K1
Briefly: Human cloned 5-HT2B receptor binding assay. The conditions noted are these: [3H]LSD (1 nM) displacement, membranes of CHO-K1 cells expressing cloned 5-HT2B receptor; read-out: 5-HT2B pKi (converted). As for the experimental part:
The binding affinity of the compounds for human cloned 5-HT2B receptors was determined using the following assay.
CHO-K1 cells expressing cloned 5-HT2B receptor were maintained in Ultra-CHO medium containing 400 μg/ml of G418, 100 U/ml penicillin, 100 μg/ml streptomycin, 2.5 μg/ml fungizone and 1-foetal bovine serum, in 95/5% O2/CO2 at 37° C. The cells were harvested using 0.25% trypsin and were centrifuged at 800 rpm for 8 minutes. The cells were homogenised in 50 mM HEPES buffer containing 1 mM disodium EDTA and 1 mM PMSF at pH 7.4, using a Dounce homogeniser (20 strokes). The homogenate was centrifuged at 2280 rpm (1000 g) and 4° C. for 10 minutes, after which the supernatant was removed by decanting. The pellet was re-homogenised as above, and the resulting supernatant removed and combined with that already obtained. The supernatant solution was then centrifuged at 18300 rpm (40000 g) for 10 minutes at 4° C. using a Sorvall centrifuge. The supernatant was removed, and the pellet was re-suspended in 50 mM buffer at pH 7.4 using a Ultra-turrax T25 Polytron, before centrifugation again at 40000 g as above. This wash procedure was repeated, after which the membrane preparation was stored at a concentration of 1 mg/ml at −80° C. until use.
The membranes were thawed rapidly and diluted in assay buffer containing Tris-HCl (50 mM, pH 7.4), ascorbic acid (0.1°) and calcium chloride (4 mM). The membranes were homogenised to resuspend them, prior to adding 10 or 15 μg of membranes to assay wells containing [^3H]LSD (1 nM), assay buffer (50 mM Tris, 4 mM calcium chloride and 0.1° ascorbic acid) containing pargyline (10 μM), and the test compounds (1×10^−10 to 1×10^−4M). Non specific binding was determined in the presence of 100 μM 5-HT. After 30 minutes incubation at 37° C., the assay mixture was filtered through a combination of GF-C and GF-B filters, pre-soaked in 1% polyethyleneimine, using a Brandel cell harvester, and were washed three times using 50 mM Tris-HCl. Radioactivity retained on the filters was determined by liquid scintillation counting. For each test compound, the concentration that inhibited binding of [^3H]LSD by 50% was determined using curve fitting software (Prism). Kd values (concentration of LSD required to occupy 50% of the receptor binding sites at equilibrium) determined from saturation binding studies were then used to calculate inhibition dissociation constants (Ki) using the following equation: […]
This approach follows that set out in Kenakin, T. P. Pharmacologic analysis of drug-receptor interaction. Raven Press, New York, 2nd Edition.

Assay [2] deals with T2, cloned human 5-HT2A receptor (Homo sapiens, UniProt P28223).
T2 construct: purchased Euroscreen; host or cells: CHO-K1
T2 sequence (P28223 whole entry): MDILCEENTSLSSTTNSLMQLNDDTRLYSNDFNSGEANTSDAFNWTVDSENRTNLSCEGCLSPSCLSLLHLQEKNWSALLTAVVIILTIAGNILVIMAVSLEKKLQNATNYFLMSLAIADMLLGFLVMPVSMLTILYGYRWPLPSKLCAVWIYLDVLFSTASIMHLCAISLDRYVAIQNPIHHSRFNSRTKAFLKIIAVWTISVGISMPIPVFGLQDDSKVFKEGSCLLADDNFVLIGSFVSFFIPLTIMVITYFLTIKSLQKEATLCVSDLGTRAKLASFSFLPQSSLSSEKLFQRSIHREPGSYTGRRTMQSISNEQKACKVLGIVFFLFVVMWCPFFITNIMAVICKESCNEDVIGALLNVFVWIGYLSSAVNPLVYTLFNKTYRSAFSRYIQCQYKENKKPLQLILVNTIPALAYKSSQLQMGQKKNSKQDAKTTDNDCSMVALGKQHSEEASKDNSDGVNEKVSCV
Briefly: Human 5-HT2A receptor binding assay. The conditions noted are these: [3H]ketanserin (1 nM) displacement, CHO-K1 cell membranes; read-out: 5-HT2A pKi (converted). As for the experimental part: (§1) The binding affinity of ligands for human 5-HT2A and 5-HT2C receptors was determined using the following assay.
Membrane preparations from CHO-K1 cells expressing the cloned human 5-HT2A receptor were obtained (Euroscreen). The membranes were thawed rapidly and diluted in assay buffer containing Tris-HCl (50 mM, pH 7.7). The membranes were resuspended by homogenisation, prior to adding 15 μg of membranes to assay wells containing [3H]ketanserin (1 nM), assay buffer (50 mM Tris at pH 7.4) containing pargyline (10 μM), and test compounds (1×10^−10 to 1×10^−4M). Non specific binding was determined in the presence of 100 μM mianserin. After 15 minutes incubation at 37° C., the assay mixture was filtered through a combination of GF-C and GF-B filters, pre-soaked in 0.05% Brij, using a Brandel cell harvester, and were washed three times using ice cold Tris-HCl buffer (50 mM). Radioactivity retained on the filters was determined by liquid scintillation counting. For each test compound, the concentration that inhibited binding of [^3H]ketanserin by 50% was determined using curve fitting software (Prism). Kd values (concentration of ketanserin required to occupy 50% of the receptor binding sites at equilibrium) determined from saturation binding studies were then used to calculate inhibition dissociation constants (Ki) using the following equation: […]

Assay [3] concerns the target T3, cloned human 5-HT2C receptor (Homo sapiens, UniProt P28335).
T3 construct: purchased Euroscreen; host or cells: CHO-K1
T3 sequence (P28335 33-458): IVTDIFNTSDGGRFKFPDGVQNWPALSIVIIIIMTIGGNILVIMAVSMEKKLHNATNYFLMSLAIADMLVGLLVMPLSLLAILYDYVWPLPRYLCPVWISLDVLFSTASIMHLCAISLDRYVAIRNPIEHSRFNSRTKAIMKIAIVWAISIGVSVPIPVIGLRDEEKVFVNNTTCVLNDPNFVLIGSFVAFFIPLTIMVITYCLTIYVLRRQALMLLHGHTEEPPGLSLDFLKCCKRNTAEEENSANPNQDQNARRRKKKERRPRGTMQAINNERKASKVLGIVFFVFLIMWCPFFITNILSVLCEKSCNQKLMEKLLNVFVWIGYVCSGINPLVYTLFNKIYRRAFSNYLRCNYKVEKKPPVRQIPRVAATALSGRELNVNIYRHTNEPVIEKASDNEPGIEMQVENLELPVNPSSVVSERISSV
Nature of the assay: Human 5-HT2C receptor binding assay. Conditions: [3H]mesulergine (1 nM) displacement, CHO-K1 cell membranes; read-out: 5-HT2C pKi (converted). The protocol: as §1
Membrane preparations from CHO-K1 cells expressing the cloned human 5-HT2C receptor were obtained (Euroscreen). The membranes were thawed rapidly and diluted in assay buffer containing Tris-HCl (50 mM, pH 7.7), ascorbic acid (0.1%) and pargyline (10 μM). The membranes were resuspended by homogenisation, prior to adding 6 μg of membranes to assay wells containing [^3H]mesulergine (1 nM), assay buffer (50 mM Tris at pH 7.7 and 0.1% ascorbic acid) containing pargyline (10 μM), and test compounds (1×10^−10 to 1×10^−4M). Non specific binding was determined in the presence of 100 μM mianserin. After 30 minutes incubation at 37° C., the assay mixture was filtered through a combination of GF-C and GF-B filters, pre-soaked in 1% bovine serum albumin, using a Brandel cell harvester, and were washed three times using ice cold Tris-HCl buffer (50 mM). Radioactivity retained on the filters was determined by liquid scintillation counting. For each test compound, the concentration that inhibited binding of [^3H]mesulergine by 50% was determined using curve fitting software (Prism). Kd values (concentration of mesulergine required to occupy 50% of the receptor binding sites at equilibrium) determined from saturation binding studies were then used to calculate inhibition dissociation constants (Ki) using the following equation: […]

T1 sequence (P41595 whole entry): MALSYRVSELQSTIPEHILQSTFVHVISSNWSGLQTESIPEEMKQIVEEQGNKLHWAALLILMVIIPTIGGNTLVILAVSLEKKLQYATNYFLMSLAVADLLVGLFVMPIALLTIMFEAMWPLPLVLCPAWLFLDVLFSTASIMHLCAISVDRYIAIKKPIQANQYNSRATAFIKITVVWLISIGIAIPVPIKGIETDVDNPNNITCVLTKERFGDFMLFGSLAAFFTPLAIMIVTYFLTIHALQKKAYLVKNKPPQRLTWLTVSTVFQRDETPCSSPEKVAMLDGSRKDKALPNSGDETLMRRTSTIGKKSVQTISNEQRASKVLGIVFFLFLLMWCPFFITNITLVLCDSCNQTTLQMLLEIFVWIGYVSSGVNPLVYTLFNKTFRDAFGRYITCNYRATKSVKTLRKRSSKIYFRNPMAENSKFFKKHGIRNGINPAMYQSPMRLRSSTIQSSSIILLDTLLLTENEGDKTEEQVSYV

As for `Nc1nc(-c2ccc(F)c3ccccc23)c[nH]1` [Compound 104F, 4-(4-Fluoro-naphthalen-1-yl)-1H-imidazol-2-ylamine], the Ki in assay [1] is less than 100 nM; in assay [2], greater than 1000 nM; in assay [3], greater than 1000 nM.

Turning to `COc1ccccc1-c1cccc(Nc2nc(N)nn2C)c1` [Compound 406B, N^5-(2′-methoxy-biphenyl-3-yl)-1-methyl-1H-[1,2,4]triazole-3,5-diamine], the Ki was less than 316 nM in assay [1], greater than 1000 nM in assay [2] and greater than 1000 nM in assay [3].

As to `Cc1cc(Nc2ccc(C)c(Br)c2)nc(N)n1` [Compound 2S, N^4-(3-bromo-4-methyl-phenyl)-6-methyl-pyrimidine-2,4-diamine hydrochloride], the Ki in assay [1] was less than 100 nM; in assay [2] it was greater than 1000 nM; in assay [3], greater than 316 nM.

`COc1ccc(-c2c[nH]c(NC(C)=O)n2)c2ccccc12` [Compound 103B, N-[4-(4-Methoxy-naphthalen-1-yl)-1H-imidazol-2-yl]-acetamide]: the Ki was less than 1000 nM in assay [1], greater than 10000 nM in assay [2] and greater than 10000 nM in assay [3].

Consider `Cc1cc(Nc2ccc(Br)cc2)nc(N)n1` [Compound 2F, N^4-(4-bromo-phenyl)-6-methyl-pyrimidine-2,4-diamine hydrochloride], for which the figures for the Ki in assay [1], in assay [2] and in assay [3] were less than 1000 nM, greater than 10000 nM and greater than 10000 nM, respectively.

As to `CC(=O)Nc1nc(-c2cccc3ccc(Br)cc23)c[nH]1` [Compound 103G, N-[4-(7-Bromo-naphthalen-1-yl)-1H-imidazol-2-yl]-acetamide], the Ki in assay [1] was less than 100 nM; in assay [2], greater than 1000 nM; in assay [3] it was greater than 1000 nM.

With `COc1ccc(-c2ccccc2)cc1-c1cnc(N)o1` [Compound 224A, 5-(4-methoxy-biphenyl-3-yl)-oxazol-2-ylamine, trifluoroacetic acid], the Ki was less than 1000 nM in assay [1], greater than 1000 nM in assay [2] and greater than 1000 nM in assay [3].

Consider `Nc1ncc(-c2cccc(-c3ccc(F)cc3)c2)o1` [Compound 209J, 5-(4′-Fluoro-biphenyl-3-yl)-oxazol-2-ylamine, trifluoroacetic acid], for which the Ki in assay [1] was less than 1000 nM; in assay [2] it was greater than 1000 nM; in assay [3], greater than 1000 nM.

With `Cc1cc(Nc2cccc(-c3ccccc3)c2)nc(N)n1` [Compound 10A, N^4-biphenyl-3-yl-6-methyl-pyrimidine-2,4-diamine trifluoroacetic acid], the Ki in assay [1] was less than 100 nM; in assay [2], greater than 100 nM; in assay [3], greater than 316 nM.

As for `Cc1cc(Nc2ccc(Oc3ccccc3)cc2)nc(N)n1` [Compound 2AE, 6-methyl-N^4-(4-phenoxy-phenyl)-pyrimidine-2,4-diamine hydrochloride], the Ki is less than 100 nM in assay [1], greater than 10000 nM in assay [2] and greater than 316 nM in assay [3].

As to `COc1c(-c2cnc(N)[nH]2)ccc2ccccc12` [Compound 104E, 4-(1-Methoxy-naphthalen-2-yl)-1H-imidazol-2-ylamine], the figures for the Ki in assay [1], in assay [2] and in assay [3] were less than 100 nM, greater than 1000 nM and greater than 100 nM, respectively.

In the case of `COc1c(-c2cnc(NC(C)=O)[nH]2)ccc2ccccc12` [Compound 103E, N-[4-(1-Methoxy-naphthalen-2-yl)-1H-imidazol-2-yl]-acetamide], the Ki in assay [1] was less than 100 nM; in assay [2], greater than 10000 nM; in assay [3], greater than 1000 nM.

With `Cc1oc(N)nc1-c1cccc(-c2ccccc2)c1` [Compound 218A, 4-Biphenyl-3-yl-5-methyl-oxazol-2-ylamine, trifluoroacetic acid], the Ki in assay [1] was less than 1000 nM; in assay [2] it was greater than 1000 nM; in assay [3], greater than 1000 nM.

Regarding `Cc1cc(Nc2cccc(Oc3ccccc3)c2)nc(N)n1` [Compound 2AD, 6-methyl-N^4-(3-phenoxy-phenyl)-pyrimidine-2,4-diamine hydrochloride], the values for the Ki in assay [1], in assay [2] and in assay [3] were less than 1000 nM, greater than 316 nM and greater than 1000 nM, respectively.

Take `COc1ccc(-c2cccc(Nc3cc(C)nc(N)n3)c2)cc1OC` [Compound 10B, N-(3′,4′-dimethoxy-biphenyl-3-yl)-6-methyl-pyrimidine-2,4-diamine trifluoroacetic acid]: the Ki was less than 1000 nM in assay [1], greater than 10000 nM in assay [2] and greater than 10000 nM in assay [3].

As to `Cc1cc(Nc2cccc(-c3cccnc3)c2)nc(N)n1` [Compound 10D, 6-methyl-N^4-(3-pyridin-3-yl-phenyl)-pyrimidine-2,4-diamine bis trifluoroacetic acid], the Ki in assay [1] is less than 1000 nM; in assay [2], greater than 1000 nM; in assay [3] it was greater than 1000 nM.

Consider `Nc1nc(-c2ccc(-c3ccccc3)cc2)c[nH]1` [Compound 104P, 4-Biphenyl-4-yl-1H-imidazol-2-ylamine], for which the values for the Ki in assay [1], in assay [2] and in assay [3] were less than 316 nM, greater than 100 nM and greater than 316 nM, respectively.

As to `COc1ccccc1-c1cccc(Nc2cc(C)nc(N)n2)c1` [Compound 10F, N^4-(2′-methoxy-biphenyl-3-yl)-6-methyl-pyrimidine-2,4-diamine trifluoroacetic acid], the figures for the Ki in assay [1], in assay [2] and in assay [3] were less than 100 nM, greater than 316 nM and greater than 100 nM, respectively.

Take `COc1ccccc1-c1ccc(Nc2nc(N)n(C)n2)cc1` [Compound 411B, N^3-(2′-methoxy-biphenyl-4-yl)-7-methyl-1H-[1,2,4]triazole-3,5-diamine trifluoroacetic acid]: the Ki in assay [1] was less than 1000 nM; in assay [2], greater than 1000 nM; in assay [3], greater than 1000 nM.
